The test relates to streptozotocin induced diabetic rats. As to the kind of experiment: Serum insulin levels (chemiluminescence method, human specific kit). Particulars: 30 days treatment.

Regarding `COc1ccc(Cl)cc1C(=O)NCCc1ccc(S(=O)(=O)NC(=O)NC2CCCCC2)cc1` [Glibenclamide], the insulin levels is given as 0.4 μIU/ml.

For the origin of these results see US9861610B2, “Process for selective extraction of bioactive and bioavailable cinnamon polyphenols and procyanidin oligomers and a stable composition thereof” (AKAY FLAVOURS & AROMATICS PVT LTD., priority 2011, dated 2018).
